# Test results reported in paper PMC8300687, “A Fine-Tuned Lipophilicity/Hydrophilicity Ratio Governs Antibacterial Potency and Selectivity of Bifurcated Halogen Bond-Forming NBTIs” (Antibiotics, 2021).
# Where two headings read alike, the source gives them in different places.
# Legend:
# Human topoisomerase IIα = target: T1, Human topoisomerase IIα (Homo sapiens, UniProt P11388); experiment: Human topoisomerase II Alpha Relaxation High Throughput Plate assay; format: biochemical; settings: 0.5 h; residual activity of the enzyme at compound concentration 10 μM, mean ± SD; read-out: Human Topo II (% RA)
# T1 construct: purchased Inspiralis (Norwich, UK)
# Experimental: A Human topoisomerase II Alpha Relaxation High Throughput Plate assay kit, purchased from Inspiralis (Norwich, UK) was used to evaluate the selectivity of compounds for the bacterial enzymes over the homologous human topoisomerase II. […] Biotinylated oligonucleotide in wash buffer was immobilized onto the wells and the excess oligonucleotide was washed off with wash buffer. […] The reactions were stopped by adding the TF buffer (50 mM NaOAc (pH 4.7), 50 mM NaCl, and 50 mM MgCl2) to allow the triplex formation (biotin-oligonucleotide-plasmid) for additional 30 min. Afterward, the unbound plasmid was washed off using TF buffer, and the solution of Promega Diamond dye in T10 buffer (10 mM Tris-HCl (pH 8.0), 1 mM EDTA) was added. […] Screening was performed at inhibitor concentrations of 10 μM. Raw data were converted to mean ± SD percentage of residual activity of the enzyme obtained by two independent measurements.
# E. coli (QA-11.8) = experiment: MIC broth microdilution, E. coli QA-11.8; format: cell-based
# Experimental: Antimicrobial testing was carried out by the broth microdilution method in 96-well plate format following the Clinical and Laboratory Standards Institute (CLSI) guidelines and European Committee on Antimicrobial Susceptibility Testing (EUCAST) recommendations. Bacterial suspension of specific bacterial strain equivalent to 0.5 McFarland turbidity standard was diluted with cation-adjusted Mueller Hinton broth with TES (Thermo Fisher Diagnostic, Landsmeer, The Netherlands), to obtain a final inoculum of 10^5 CFU/mL. Compounds dissolved in DMSO and inoculum were mixed together and incubated for 18–20 h at 35 °C. Suspensions of Mycobacterium sp. were prepared into a tube of Middelbrook 7H9 broth supplemented with 5% OADC (Thermo Scientific, Trek Diagnostic Systems, West Sussex, UK) and incubated for at least 10 days. After incubation the minimal inhibitory concentration (MIC) values were determined by visual inspection as the lowest dilution of compounds showing no turbidity. Tetracycline was used as a positive control on every assay plate.
# [1] = target: T2, hERG potassium ion channel (Homo sapiens, UniProt Q12809); experiment: FP-based hERG binding assay (Invitrogen kit)
# T2 construct: purchased Invitrogen (assay run at TCG Lifesciences Pvt. Ltd.)
# Experimental: Cardiovascular safety profile was entirely outsourced. hERG screening was performed at TCG Lifesciences Pvt. Ltd., Kolkata, West Bengal, India with FP-based hERG binding assay (Invitrogen kit).
# HepG2 = experiment: Metabolic activity assessment (cytotoxicity), HepG2; format: cell-based; settings: Homo sapiens
# Experimental: Cells of the HepG2 line (ATCC® HB-8065™) and HUVEC (ATCC® CRL-1730™) were cultured in Dulbecco’s Modified Eagle Medium (DMEM; Sigma-Aldrich, St. Louis, MO, USA) supplemented with 10% heat-deactivated FBS (Gibco, Grand Island, NE, USA), 2 mM L-glutamine, 100 U/mL penicillin, 100 μg/mL streptomycin (all from Sigma-Aldrich, St. Louis, MO, USA) in a humidified chamber at 37 °C and 5% CO2. The experiments were carried out on passages 7–9 for both cell lines. The tested compounds were dissolved in DMSO and further diluted in culture medium to a desired final concentration. Cells were seeded into 96-well plates at 8 × 10^4 cells/mL (100 μL/well) and incubated for 24 h to attach onto the wells. Cells were treated with 1 μM and 50 μM of each compound of interest or corresponding vehicle as control. […] The metabolic activity was assessed after 72 h treatment using the CellTiter 96 Aqueous One Solution Cell Proliferation Assay (Promega, Madison, WI, USA), in accordance with the manufacturer’s instructions. The absorbance was measured at 492 nm on an automated microplate reader BioTek Synergy HT (BioTek Instruments, Inc., Winooski, VT, USA). Data are presented as the percentage of metabolic activity of control cells stimulated with vehicle or as IC50 value (mean ± SD) from two independent experiments, each conducted in duplicate or triplicate. IC50 values were calculated by a non-linear regression model using Graph Pad Prism 7 software.
# S. aureus DNA gyrase = target: T3, S. aureus DNA gyrase (Staphylococcus aureus, UniProt P20831); experiment: gel-based S. aureus Gyrase Supercoiling assay (Inspiralis); format: biochemical; settings: gel-based assays by Inspiralis, as detailed in [13]
# T3 construct: purchased Inspiralis (Norwich, UK)
# Text: […]. […] IC50 value represents the mean of two to four independent measurements.
# [2] = Escherichia coli, 20 h; read-out: MIC E. coli (QA-11.8)
# [3] = HepG2, metabolic activity after 72 h treatment
# [4] = Escherichia coli, 20 h, read-out: MIC E. coli (QA-11.8)
# [5] = HepG2, 72 h, metabolic activity after 72 h treatment
# T1 sequence (P11388 whole entry): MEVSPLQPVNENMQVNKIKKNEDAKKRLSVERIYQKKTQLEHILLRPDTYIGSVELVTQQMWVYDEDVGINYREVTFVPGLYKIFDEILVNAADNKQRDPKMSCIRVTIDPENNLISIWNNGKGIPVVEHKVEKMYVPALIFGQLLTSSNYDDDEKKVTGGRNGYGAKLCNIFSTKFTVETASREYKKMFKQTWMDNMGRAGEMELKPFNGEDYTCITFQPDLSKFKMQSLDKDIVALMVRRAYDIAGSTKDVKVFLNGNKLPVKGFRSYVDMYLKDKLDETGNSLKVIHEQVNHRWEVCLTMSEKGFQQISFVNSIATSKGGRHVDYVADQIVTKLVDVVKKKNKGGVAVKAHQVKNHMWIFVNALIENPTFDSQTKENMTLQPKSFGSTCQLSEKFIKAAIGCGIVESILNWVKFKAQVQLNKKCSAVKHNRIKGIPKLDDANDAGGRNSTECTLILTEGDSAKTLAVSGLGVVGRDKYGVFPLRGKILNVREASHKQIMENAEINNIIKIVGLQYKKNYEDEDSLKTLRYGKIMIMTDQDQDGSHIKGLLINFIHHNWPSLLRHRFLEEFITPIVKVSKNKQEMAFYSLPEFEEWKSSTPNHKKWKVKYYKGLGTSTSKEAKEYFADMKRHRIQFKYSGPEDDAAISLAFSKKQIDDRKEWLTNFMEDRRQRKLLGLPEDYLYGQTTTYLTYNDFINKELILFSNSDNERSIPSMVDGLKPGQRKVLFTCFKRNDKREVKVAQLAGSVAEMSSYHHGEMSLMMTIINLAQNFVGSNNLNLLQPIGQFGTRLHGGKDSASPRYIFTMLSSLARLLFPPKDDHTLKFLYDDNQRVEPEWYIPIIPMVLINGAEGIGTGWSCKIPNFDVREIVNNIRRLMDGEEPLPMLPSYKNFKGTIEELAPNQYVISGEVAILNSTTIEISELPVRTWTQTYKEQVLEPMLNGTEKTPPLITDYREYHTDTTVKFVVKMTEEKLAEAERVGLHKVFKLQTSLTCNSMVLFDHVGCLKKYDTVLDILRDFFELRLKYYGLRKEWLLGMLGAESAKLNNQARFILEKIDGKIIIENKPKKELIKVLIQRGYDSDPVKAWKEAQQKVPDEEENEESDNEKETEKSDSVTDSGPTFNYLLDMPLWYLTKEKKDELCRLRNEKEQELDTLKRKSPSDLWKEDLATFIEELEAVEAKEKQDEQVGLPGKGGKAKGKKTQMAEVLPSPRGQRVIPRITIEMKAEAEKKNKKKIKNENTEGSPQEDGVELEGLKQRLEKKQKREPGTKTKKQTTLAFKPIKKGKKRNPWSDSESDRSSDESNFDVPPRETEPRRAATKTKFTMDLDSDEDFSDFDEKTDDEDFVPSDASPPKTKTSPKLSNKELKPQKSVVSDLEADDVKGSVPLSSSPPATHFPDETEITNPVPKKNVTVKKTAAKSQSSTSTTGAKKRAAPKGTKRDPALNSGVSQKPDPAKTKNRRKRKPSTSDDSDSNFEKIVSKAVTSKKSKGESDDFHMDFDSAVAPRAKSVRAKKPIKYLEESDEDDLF
# T2 sequence (Q12809 whole entry): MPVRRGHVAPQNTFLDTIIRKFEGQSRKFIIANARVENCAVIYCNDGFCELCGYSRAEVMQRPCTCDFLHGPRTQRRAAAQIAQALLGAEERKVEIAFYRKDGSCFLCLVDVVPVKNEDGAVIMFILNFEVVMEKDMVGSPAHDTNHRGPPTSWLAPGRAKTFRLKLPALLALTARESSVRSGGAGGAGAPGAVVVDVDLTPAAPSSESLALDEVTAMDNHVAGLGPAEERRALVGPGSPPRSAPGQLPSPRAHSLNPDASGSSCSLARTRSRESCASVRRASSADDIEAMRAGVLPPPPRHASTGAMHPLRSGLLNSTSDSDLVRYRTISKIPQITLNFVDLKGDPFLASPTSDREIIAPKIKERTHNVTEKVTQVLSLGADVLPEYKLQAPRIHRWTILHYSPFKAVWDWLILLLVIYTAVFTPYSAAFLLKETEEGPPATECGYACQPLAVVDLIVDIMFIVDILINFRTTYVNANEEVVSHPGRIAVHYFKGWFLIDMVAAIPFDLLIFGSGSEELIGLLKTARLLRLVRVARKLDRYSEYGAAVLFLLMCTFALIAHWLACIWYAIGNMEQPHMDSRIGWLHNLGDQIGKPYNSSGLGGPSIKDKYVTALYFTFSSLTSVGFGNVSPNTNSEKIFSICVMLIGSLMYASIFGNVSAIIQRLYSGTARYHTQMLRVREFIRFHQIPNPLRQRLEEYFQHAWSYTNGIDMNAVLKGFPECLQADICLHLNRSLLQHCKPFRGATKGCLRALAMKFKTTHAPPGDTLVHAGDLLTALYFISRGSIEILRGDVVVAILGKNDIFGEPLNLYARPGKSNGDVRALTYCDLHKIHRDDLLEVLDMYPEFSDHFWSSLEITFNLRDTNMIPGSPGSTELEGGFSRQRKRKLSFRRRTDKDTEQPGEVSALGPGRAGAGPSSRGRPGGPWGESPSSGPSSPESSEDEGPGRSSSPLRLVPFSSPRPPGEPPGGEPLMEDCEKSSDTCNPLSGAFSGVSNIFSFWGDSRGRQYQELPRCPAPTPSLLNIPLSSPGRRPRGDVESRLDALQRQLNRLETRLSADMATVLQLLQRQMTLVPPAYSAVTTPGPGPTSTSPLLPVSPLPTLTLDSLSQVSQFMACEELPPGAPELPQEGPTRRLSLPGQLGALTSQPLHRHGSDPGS
# T3 sequence (P20831 whole entry): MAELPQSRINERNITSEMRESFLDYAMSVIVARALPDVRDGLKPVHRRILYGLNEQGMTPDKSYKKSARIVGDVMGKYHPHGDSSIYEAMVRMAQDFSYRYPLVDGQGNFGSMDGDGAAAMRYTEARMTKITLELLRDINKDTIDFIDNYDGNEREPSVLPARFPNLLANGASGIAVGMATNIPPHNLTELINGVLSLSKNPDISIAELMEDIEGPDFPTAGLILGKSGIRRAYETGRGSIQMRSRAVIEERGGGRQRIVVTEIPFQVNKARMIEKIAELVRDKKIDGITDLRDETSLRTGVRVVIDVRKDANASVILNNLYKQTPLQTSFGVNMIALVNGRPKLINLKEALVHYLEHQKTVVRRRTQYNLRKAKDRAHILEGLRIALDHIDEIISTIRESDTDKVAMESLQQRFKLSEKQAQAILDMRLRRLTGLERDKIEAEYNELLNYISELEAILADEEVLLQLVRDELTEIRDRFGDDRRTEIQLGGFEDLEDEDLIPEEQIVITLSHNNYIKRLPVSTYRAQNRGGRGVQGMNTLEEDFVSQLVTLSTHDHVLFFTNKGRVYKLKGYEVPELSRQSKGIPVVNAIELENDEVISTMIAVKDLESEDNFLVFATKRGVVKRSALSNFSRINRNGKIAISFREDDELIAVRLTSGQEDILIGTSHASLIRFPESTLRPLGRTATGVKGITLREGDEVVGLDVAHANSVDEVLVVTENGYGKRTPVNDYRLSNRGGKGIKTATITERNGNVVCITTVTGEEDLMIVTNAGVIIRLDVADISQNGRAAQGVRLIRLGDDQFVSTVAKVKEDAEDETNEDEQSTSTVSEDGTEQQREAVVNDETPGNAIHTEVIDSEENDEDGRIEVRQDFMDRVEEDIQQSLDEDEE
# T3 sequence (P0A0K8 whole entry partner): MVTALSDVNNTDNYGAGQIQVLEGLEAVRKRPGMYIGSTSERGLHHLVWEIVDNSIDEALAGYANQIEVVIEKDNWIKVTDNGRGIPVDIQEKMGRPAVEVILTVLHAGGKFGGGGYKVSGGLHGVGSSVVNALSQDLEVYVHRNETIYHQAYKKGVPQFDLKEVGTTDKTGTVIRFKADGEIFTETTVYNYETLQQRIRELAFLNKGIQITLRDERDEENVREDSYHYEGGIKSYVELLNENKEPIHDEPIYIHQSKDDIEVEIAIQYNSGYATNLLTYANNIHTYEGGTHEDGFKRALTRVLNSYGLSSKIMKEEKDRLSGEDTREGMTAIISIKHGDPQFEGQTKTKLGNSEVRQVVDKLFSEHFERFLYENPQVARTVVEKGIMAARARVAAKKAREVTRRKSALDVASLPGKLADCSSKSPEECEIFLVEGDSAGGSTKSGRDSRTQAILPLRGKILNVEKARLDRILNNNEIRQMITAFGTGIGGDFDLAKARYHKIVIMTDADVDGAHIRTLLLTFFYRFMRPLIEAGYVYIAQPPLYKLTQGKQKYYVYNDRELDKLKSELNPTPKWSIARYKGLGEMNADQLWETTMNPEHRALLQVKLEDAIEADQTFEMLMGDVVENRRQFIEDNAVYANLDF
Structure (SMILES),remaining activity at 10 µM (Human topoisomerase IIα) [%],MIC (E. coli (QA-11.8); [2]) [µg/mL],IC50 [1] [µM],IC50 (HepG2; [3]) [µM],MIC (E. coli (QA-11.8); [4]) [µg/mL],IC50 (S. aureus DNA gyrase) [µM],IC50 (HepG2; [5]) [µM]
"COc1ccc2nccc(CCN3CCC(NCc4nc5ccccc5n4C)CC3)c2n1 [Compound 3, 1-(2-(6-Methoxy-1,5-naphthyridin-4-yl)ethyl)-N-((1-methyl-1H-benzo[d]imidazol-2-yl)methyl)piperidin-4-amine]",94.7 ± 4.82,64,1.04,–,–,–,–
"COc1ccc2nccc(CCN3CCC(NCc4cnn(-c5ccc(F)cc5)c4)CC3)c2n1 [Compound 4, N-((1-(4-Fluorophenyl)-1H-pyrazol-4-yl)methyl)-1-(2-(6-methoxy-1,5-naphthyridin-4-yl)ethyl)piperidin-4-amine]",88.41 ± 0.15,16,0.33,4.64 ± 0.1,–,–,–
"COc1ccc2nccc(CCN3CCC(NCc4cnn(-c5ccccc5)c4)CC3)c2n1 [Compound 5, 1-(2-(6-Methoxy-1,5-naphthyridin-4-yl)ethyl)-N-((1-phenyl-1H-pyrazol-4-yl)methyl)piperidin-4-amine]",82.1 ± 2.52,2,0.62,6.33 ± 0.19,–,–,–
"COc1ccc2nccc(CCN3CCC(NCc4c(C)nc5c(C)cccn45)CC3)c2n1 [Compound 6, N-((2,8-Dimethylimidazo[1,2-a]pyridin-3-yl)methyl)-1-(2-(6-methoxy-1,5-naphthyridin-4-yl)ethyl)piperidin-4-amine]",99.4 ± 9.93,–,–,–,> 128,–,–
"COc1ccc2nccc(CCN3CCC(NC(=O)c4cn5cccc(C#N)c5n4)CC3)c2n1 [Compound 7, 8-Cyano-N-(1-(2-(6-methoxy-1,5-naphthyridin-4-yl)ethyl)piperidin-4-yl)imidazo[1,2-a]pyridine-2-carboxamide]",90.3 ± 7.56,–,–,–,> 128,–,–
"COc1ccc2nccc(CCN3CCC(NCc4cnn(-c5ccccc5)n4)CC3)c2n1 [Compound 8, 1-(2-(6-Methoxy-1,5-naphthyridin-4-yl)ethyl)-N-((2-phenyl-2H-1,2,3-triazol-4-yl)methyl)piperidin-4-amine]",94.2 ± 2.9,32,0.37,17.1 ± 0.98,–,–,–
"COc1ccc2nccc(CCN3CCC(NCc4cnn(C(C)C)c4)CC3)c2n1 [Compound 9, N-((1-Isopropyl-1H-pyrazol-4-yl)methyl)-1-(2-(6-methoxy-1,5-naphthyridin-4-yl)ethyl)piperidin-4-amine]",101 ± 6.82,8,9.82,> 50,–,–,–
"C=CCn1cc(CNC2CCN(CCc3ccnc4ccc(OC)nc34)CC2)cn1 [Compound 10, N-((1-Allyl-1H-pyrazol-4-yl)methyl)-1-(2-(6-methoxy-1,5-naphthyridin-4-yl)ethyl)piperidin-4-amine]",95.7 ± 6.42,16,6.62,> 50,–,–,–
COc1ccc2nccc(CCN3CCC(NCc4ccccc4)CC3)c2n1 [Compound 11],97 ± 9.58,64,–,–,–,–,–
COc1ccc2nccc(CCN3CCC(NCc4ccc(F)cc4)CC3)c2n1 [Compound 12],101 ± 11.2,16,–,–,–,–,–
COc1ccc2nccc(CCN3CCC(NCc4ccc(Cl)cc4)CC3)c2n1 [Compound 13],102 ± 0.84,2,–,–,–,–,–
COc1ccc2nccc(CCN3CCC(NCc4ccc(Br)cc4)CC3)c2n1 [Compound 14],98.2 ± 2.72,1,–,–,–,–,–
COc1ccc2nccc(CCN3CCC(NCc4ccc(I)cc4)CC3)c2n1 [Compound 15],88.3 ± 3.33,0.25,–,–,–,0.011 ± 0.003,~10
COc1ccc2nccc(CCN3CCC(NCc4ccc(CO)cc4)CC3)c2n1 [Compound 16],97.7 ± 1.08,128,3.24,–,–,–,–
COc1ccc2nccc(CCN3CCC(NCc4ccc(C(N)=O)cc4)CC3)c2n1 [Compound 17],97.8 ± 2.21,> 128,–,–,–,–,–
COc1ccc2nccc(CCN3CCC(NCc4ccc(N(C)C)cc4)CC3)c2n1 [Compound 18],94.2 ± 1.33,8,–,–,–,–,–
"COc1ccc2nccc(CCN3CCC(NCc4ccc(OC(F)F)c(OC)c4)CC3)c2n1 [Compound 19, N-(4-(Difluoromethoxy)-3-methoxybenzyl)-1-(2-(6-methoxy-1,5-naphthyridin-4-yl)ethyl)piperidin-4-amine]",96.4 ± 2.3,4,0.46,–,–,–,6.31 ± 0.09
"COc1ccc2nccc(CCN3CCC(NCc4ccc(OC(F)F)c(O)c4)CC3)c2n1 [Compound 20, 2-(Difluoromethoxy)-5-((1-(2-(6-methoxy-1,5-naphthyridin-4-yl)ethyl)piperidin-4-ylamino)methyl)phenol]",94.8,4,0.18,–,–,–,10.9 ± 0.12
"COc1ccc2nccc(CCN3CCC(NCc4ccc(C(F)(F)F)nc4)CC3)c2n1 [Compound 21, 1-(2-(6-Methoxy-1,5-naphthyridin-4-yl)ethyl)-N-((6-(trifluoromethyl)pyridin-3-yl)methyl)piperidin-4-amine]",95.5 ± 2.39,8,1.97,> 50,–,–,–
"COc1ccc(CNC2CCN(CCc3ccnc4ccc(OC)nc34)CC2)cn1 [Compound 22, 1-(2-(6-Methoxy-1,5-naphthyridin-4-yl)ethyl)-N-((6-methoxypyridin-3-yl)methyl)piperidin-4-amine]",97 ± 6.94,8,3.05,32.03 ± 0.3,–,–,–
